In PubChem BioAssay (NCI):
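Step 1: Grow cells in 96-well plates. Step 2: Expose to compound for 48 hours at 5 concentrations. Step 3: Interpolate endpoints linearly; if unreached, use highest concentration. TGI: concentration producing complete growth inhibition.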

What was measured:
Assay in all cases: growth of human tumour cells (NCI), 48 h
HOP-62 NSCLC = tested on: HOP-62 NSCLC
SK-MEL-28 melanoma = tested on: SK-MEL-28 melanoma
NCI-H460 lung = tested on: NCI-H460 lung
UACC-62 melanoma = tested on: UACC-62 melanoma
HT29 colon = tested on: HT29 colon
HS 578T breast = tested on: HS 578T breast
NCI-H226 lung = tested on: NCI-H226 lung
BT-549 breast = tested on: BT-549 breast
UACC-257 melanoma = tested on: UACC-257 melanoma
SW-620 colon = tested on: SW-620 colon
K-562 leukemia = tested on: K-562 leukemia
PC-3 prostate = tested on: PC-3 prostate
CCRF-CEM leukemia = tested on: CCRF-CEM leukemia
U251 CNS = tested on: U251 CNS
786-0 renal = tested on: 786-0 renal
MDA-MB-231 breast = tested on: MDA-MB-231 breast
NCI-H522 lung = tested on: NCI-H522 lung

For `C=CCN1C(=O)CC2[C@@H]3CCc4cc(O)ccc4C3CC[C@]2(C)C1=O` (stereo partly specified), the TGI (HOP-62 NSCLC) was > 10 µM, the TGI (SK-MEL-28 melanoma) was > 10 µM and the TGI (NCI-H460 lung) was > 10 µM. For the same compound, the TGI (UACC-62 melanoma) was > 10 µM, the TGI (HT29 colon) was > 10 µM and the TGI (HS 578T breast) was > 10 µM. The TGI (NCI-H226 lung) was > 10 µM, the TGI (BT-549 breast) was > 10 µM and the TGI (UACC-257 melanoma) was > 10 µM. For the same compound, the TGI (SW-620 colon) was > 10 µM, the TGI (K-562 leukemia) was > 10 µM and the TGI (PC-3 prostate) was > 10 µM. For the same compound, the TGI (CCRF-CEM leukemia) was > 10 µM, the TGI (U251 CNS) was > 10 µM and the TGI (786-0 renal) was > 10 µM. For the same compound, the TGI (MDA-MB-231 breast) was > 10 µM.

In the case of `Cc1ccc(-c2n[nH]c(=O)n2/N=C\c2ccccc2O)cc1`, the TGI (HOP-62 NSCLC) was > 100 µM, the TGI (SK-MEL-28 melanoma) was > 100 µM and the TGI (NCI-H460 lung) was > 100 µM. For the same compound, the TGI (HT29 colon) was > 100 µM, the TGI (HS 578T breast) was > 100 µM and the TGI (NCI-H226 lung) was > 100 µM. For the same compound, the TGI (BT-549 breast) was > 100 µM, the TGI (UACC-257 melanoma) was > 100 µM and the TGI (SW-620 colon) was > 100 µM. For the same compound, the TGI (K-562 leukemia) was > 100 µM, the TGI (PC-3 prostate) was > 100 µM and the TGI (CCRF-CEM leukemia) was > 100 µM. The TGI (NCI-H522 lung) was > 100 µM, the TGI (U251 CNS) was > 100 µM and the TGI (786-0 renal) was > 100 µM. For the same compound, the TGI (MDA-MB-231 breast) was > 100 µM.

In the case of `Cc1ccc(S(=O)(=O)n2cc(/C=C/C#N)c(-c3cn(S(=O)(=O)c4ccc(C)cc4)cc3-c3cn(S(=O)(=O)c4ccc(C)cc4)cc3/C=C/C#N)c2)cc1`, the TGI (HOP-62 NSCLC) was > 100 µM, the TGI (UACC-62 melanoma) was > 100 µM and the TGI (HT29 colon) was > 100 µM. The TGI (HS 578T breast) was > 100 µM, the TGI (NCI-H226 lung) was > 100 µM and the TGI (BT-549 breast) was > 100 µM. For the same compound, the TGI (UACC-257 melanoma) was > 100 µM, the TGI (K-562 leukemia) was > 100 µM and the TGI (PC-3 prostate) was > 100 µM. For the same compound, the TGI (NCI-H522 lung) was > 100 µM, the TGI (786-0 renal) was > 100 µM and the TGI (MDA-MB-231 breast) was > 100 µM.

With `C=C1CC[C@](C)(O)[C@@]2(C)CC[C@H]3C(=C(C)C)C(=O)C[C@]3(C)C[C@H]12` the TGI (HOP-62 NSCLC) was > 50 µM, the TGI (SK-MEL-28 melanoma) was > 50 µM and the TGI (UACC-62 melanoma) was > 50 µM. The TGI (HT29 colon) was > 50 µM, the TGI (HS 578T breast) was > 50 µM and the TGI (NCI-H226 lung) was > 50 µM. The TGI (BT-549 breast) was > 50 µM, the TGI (UACC-257 melanoma) was > 50 µM and the TGI (SW-620 colon) was > 50 µM. For the same compound, the TGI (K-562 leukemia) was 16.8 µM, the TGI (PC-3 prostate) was > 50 µM and the TGI (CCRF-CEM leukemia) was 30.9 µM. For the same compound, the TGI (NCI-H522 lung) was > 50 µM, the TGI (U251 CNS) was > 50 µM and the TGI (786-0 renal) was > 50 µM. The TGI (MDA-MB-231 breast) was > 50 µM.

With `COC(=O)C(=O)C(C(=O)C(=O)Nc1ccc(Cl)c(Cl)c1)c1nc2ccc(C(=O)c3ccccc3)cc2[nH]c1=O` (stereo unspecified) the TGI (HOP-62 NSCLC) was > 100 µM, the TGI (SK-MEL-28 melanoma) was > 100 µM and the TGI (UACC-62 melanoma) was > 100 µM. For the same compound, the TGI (HT29 colon) was > 100 µM, the TGI (HS 578T breast) was > 100 µM and the TGI (NCI-H226 lung) was > 100 µM. For the same compound, the TGI (BT-549 breast) was > 100 µM, the TGI (UACC-257 melanoma) was > 100 µM and the TGI (SW-620 colon) was > 100 µM. For the same compound, the TGI (K-562 leukemia) was 12.9 µM, the TGI (PC-3 prostate) was > 100 µM and the TGI (CCRF-CEM leukemia) was > 100 µM. For the same compound, the TGI (NCI-H522 lung) was > 100 µM, the TGI (U251 CNS) was > 100 µM and the TGI (786-0 renal) was > 100 µM. The TGI (MDA-MB-231 breast) was > 100 µM.

With `O=C(CCC(=O)c1ccsc1)c1ccsc1` the TGI (HOP-62 NSCLC) was > 100 µM, the TGI (SK-MEL-28 melanoma) was > 100 µM and the TGI (NCI-H460 lung) was > 100 µM. The TGI (UACC-62 melanoma) was > 100 µM, the TGI (HS 578T breast) was > 100 µM and the TGI (NCI-H226 lung) was > 100 µM. The TGI (BT-549 breast) was > 100 µM, the TGI (UACC-257 melanoma) was > 100 µM and the TGI (SW-620 colon) was > 100 µM. The TGI (PC-3 prostate) was > 100 µM, the TGI (NCI-H522 lung) was > 100 µM and the TGI (U251 CNS) was > 100 µM. The TGI (786-0 renal) was > 100 µM and the TGI (MDA-MB-231 breast) was > 100 µM.

In the case of `O=C1c2ccccc2-c2nnc3c(c21)Cc1ccccc1C3`, the TGI (HOP-62 NSCLC) was > 10 µM, the TGI (SK-MEL-28 melanoma) was > 10 µM and the TGI (NCI-H460 lung) was > 10 µM. The TGI (UACC-62 melanoma) was > 10 µM, the TGI (HT29 colon) was > 10 µM and the TGI (HS 578T breast) was > 10 µM. The TGI (NCI-H226 lung) was > 10 µM, the TGI (BT-549 breast) was > 10 µM and the TGI (SW-620 colon) was > 10 µM. The TGI (K-562 leukemia) was > 10 µM, the TGI (PC-3 prostate) was > 10 µM and the TGI (CCRF-CEM leukemia) was > 10 µM. For the same compound, the TGI (NCI-H522 lung) was > 10 µM, the TGI (U251 CNS) was > 10 µM and the TGI (786-0 renal) was > 10 µM. For the same compound, the TGI (MDA-MB-231 breast) was > 10 µM.
